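Briefly, cells in 96-well plates were exposed to five compound concentrations for 48 h, and endpoints were estimated by linear interpolation. TGI: total growth inhibition.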
Legend:
Assay in all cases: NCI-60 cell line screen, 48 h
[1] = test system: SF-539 CNS
[2] = test system: SK-MEL-2 melanoma
[3] = test system: IGROV1 ovarian
[4] = test system: MDA-N
[5] = test system: HCT-116 colon
[6] = test system: SK-MEL-28 melanoma
[7] = test system: NCI-H522 lung
[8] = test system: SN12C renal
[9] = test system: OVCAR-3 ovarian
[10] = test system: HT29 colon
[11] = test system: HOP-62 NSCLC
[12] = test system: NCI-H23 lung
[13] = test system: COLO 205 colon
[14] = test system: K-562 leukemia
[15] = test system: EKVX NSCLC
[16] = test system: MDA-MB-435
[17] = test system: HS 578T breast
[18] = test system: SNB-19 CNS
[19] = test system: U251 CNS
[20] = test system: NCI-H226 lung
[21] = test system: BT-549 breast
[22] = test system: MDA-MB-231 breast
[23] = test system: DU-145 prostate
[24] = test system: SR leukemia
[25] = test system: HOP-92 NSCLC
[26] = test system: SF-268 CNS
[27] = test system: SF-295 CNS
[28] = test system: RPMI-8226 leukemia
[29] = test system: MALME-3M melanoma
[30] = test system: SW-620 colon
[31] = test system: SK-MEL-5 melanoma
[32] = test system: T-47D breast
[33] = test system: HCT-15 colon
[34] = test system: MOLT-4 leukemia
[35] = test system: NCI/ADR-RES ovarian
[36] = test system: A549 NSCLC
[37] = test system: UO-31 renal
[38] = test system: 786-0 renal
[39] = test system: CAKI-1 renal
[40] = test system: HL-60(TB) leukemia
[41] = test system: SNB-75 CNS
[42] = test system: LOX IMVI melanoma
[43] = test system: OVCAR-4 ovarian
[44] = test system: M14 melanoma
[45] = test system: PC-3 prostate
[46] = test system: RXF 393 renal
[47] = test system: HCC-2998 colon
[48] = test system: SK-OV-3 ovarian
[49] = test system: MCF7 breast
[50] = test system: UACC-62 melanoma
[51] = test system: NCI-H460 lung
[52] = test system: UACC-257 melanoma
[53] = test system: KM12 colon
[54] = test system: OVCAR-8 ovarian
[55] = test system: OVCAR-5 ovarian
[56] = test system: TK-10 renal
[57] = test system: ACHN renal
[58] = test system: CCRF-CEM leukemia

Measured: TGI

Cc1cc(=O)n2nc(CSc3n[nH]c(=S)s3)sc2n1
> 100 µM: [1] | [2] | [3] | [4] | [5] | [6] | [7] | [8] | [9] | [10] | [11] | [12] | [13] | [14] | [15] | [16] | [17] | [18] | [19] | [20] | [21] | [22] | [23] | [24] | [25] | [26] | [27] | [28] | [29] | [30] | [31] | [32] | [33] | [34] | [35] | [36] | [37] | [38] | [39] | [40] | [41] | [42] | [43] | [44] | [45] | [46] | [47] | [48] | [49] | [50] | [51] | [52] | [53] | [54] | [55] | [56] | [57] | [58]

Reference: PubChem BioAssay (NCI)
